According to ChEMBL document CHEMBL1201862, “PubChem BioAssay data set” (2004):
Where “and” joins values, the source holds several entries; their conditions need not be identical. Identical values can stand only once.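 Five concentrations, 48 hours, 96-well plates. GI50 = concentration required for 50% inhibition of growth.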 Calls of active or inactive are those of the source. Rule as the data show it: active = GI50 up to about 1.1 µM and inactive = higher.

Tests used:
Test in all cases: growth of human tumour cells (NCI), 48 h
786-0 = system: 786-0
UACC-257 = system: UACC-257
HCT-116 = system: HCT-116
A498 = system: A498
NCI-H226 = system: NCI-H226
OVCAR-4 = system: OVCAR-4
IGROV-1 = system: IGROV-1
SK-MEL-28 = system: SK-MEL-28
HOP-92 = system: HOP-92
SF-295 = system: SF-295
BT-549 = system: BT-549
HOP-62 = system: HOP-62
RXF 393 = system: RXF 393
MDA-N = system: MDA-N
SK-OV-3 = system: SK-OV-3
HT-29 = system: HT-29
KM12 = system: KM12
HCT-15 = system: HCT-15
OVCAR-3 = system: OVCAR-3
RPMI-8226 = system: RPMI-8226

Structure (SMILES) | GI50 (786-0) | GI50 (UACC-257) | GI50 (HCT-116) | GI50 (A498) | GI50 (NCI-H226) | GI50 (OVCAR-4) | GI50 (IGROV-1) | GI50 (SK-MEL-28) | GI50 (HOP-92) | GI50 (SF-295) | GI50 (BT-549) | GI50 (HOP-62) | GI50 (RXF 393) | GI50 (MDA-N) | GI50 (SK-OV-3) | GI50 (HT-29) | GI50 (KM12) | GI50 (HCT-15) | GI50 (OVCAR-3) | GI50 (RPMI-8226)
NC1=CN2c3ccccc3N(CC(=O)N3CCOCC3)C2C=C1 (centres undefined) | > 100 µM (inactive) | > 100 µM (inactive) | > 100 µM (inactive) | 52.1 µM (inactive) | > 100 µM (inactive) | > 100 µM (inactive) | > 100 µM (inactive) | > 100 µM (inactive) | > 100 µM (inactive) | > 100 µM (inactive) | > 100 µM (inactive) | > 100 µM (inactive) | > 100 µM (inactive) | > 100 µM (inactive) | > 100 µM (inactive) | > 100 µM (inactive) | > 100 µM (inactive) | > 100 µM | – | –
O=C(Cc1ccccc1)NN1C(=O)/C(=C\c2ccccc2)S/C1=N\c1ccccc1 | > 100 µM (inactive) | > 100 µM (inactive) | > 100 µM (inactive) | > 100 µM (inactive) | > 100 µM (inactive) | > 100 µM (inactive) | > 100 µM (inactive) | > 100 µM (inactive) | > 100 µM (inactive) | > 100 µM (inactive) | > 100 µM (inactive) | > 100 µM (inactive) | > 100 µM (inactive) | > 100 µM (inactive) | > 100 µM (inactive) | > 100 µM (inactive) | > 100 µM (inactive) | > 100 µM | > 100 µM (inactive) | –
CC(=O)NC1(C)C(C)C2CC1C(C)C2(C)C (centres undefined) | > 100 µM (inactive) | > 100 µM (inactive) | > 100 µM (inactive) | > 100 µM (inactive) | > 100 µM (inactive) | > 100 µM (inactive) | > 100 µM (inactive) | > 100 µM (inactive) | > 100 µM (inactive) | > 100 µM (inactive) | > 100 µM (inactive) | > 100 µM (inactive) | > 100 µM (inactive) | > 100 µM (inactive) | > 100 µM (inactive) | > 100 µM (inactive) | > 100 µM (inactive) | – | > 100 µM (inactive) | –
Cc1ccc2[nH]c3[nH]c(=O)[nH]c(=O)c3c2c1 | > 100 µM (inactive) | > 100 µM (inactive) | > 100 µM (inactive) | > 100 µM (inactive) | > 100 µM (inactive) | – | > 100 µM (inactive) | – | > 100 µM (inactive) | 58.3 µM (inactive) | > 100 µM (inactive) | > 100 µM (inactive) | > 100 µM (inactive) | > 100 µM (inactive) | > 100 µM (inactive) | > 100 µM (inactive) | 43.6 µM (inactive) | > 100 µM | > 100 µM (inactive) | > 100 µM (inactive)
COC(=O)C12OCC34C(CC5C(C)=CC(=O)C(O)C5(C)C3C(O)C1O)OC(=O)C(OC(=O)CC(C)C)C24 (centres undefined) | 0.0468 µM (active) | 0.00284 µM (active) | – | 0.002 µM (active) | 0.00109 µM (active) | – | 0.000564 µM (active) | 0.00134 µM (active) | 0.00324 µM (active) | 0.00158 µM (active) | 0.000463 µM (active) | 0.00222 µM (active) | 0.00168 µM (active) | 0.00142 µM (active) | 0.0031 µM (active) | 0.000973 µM (active) | 0.00166 µM (active) | 0.00288 µM | 0.000906 µM (active) | 0.000371 µM (active)
CC1C2CCC3C(O)C2(CC(O)C2(O)C1CC(O)C2(C)C)CC3(C)O (centres undefined) | > 100 µM (inactive) | > 100 µM (inactive) | > 100 µM (inactive) | > 100 µM (inactive) | > 100 µM (inactive) | > 100 µM (inactive) | > 100 µM (inactive) | > 100 µM (inactive) | > 100 µM (inactive) | > 100 µM (inactive) | > 100 µM (inactive) | – | – | > 100 µM (inactive) | > 100 µM (inactive) | > 100 µM (inactive) | > 100 µM (inactive) | > 100 µM | – | –
COc1ccc(C#Cn2nnc3ccccc32)cc1 | > 100 µM (inactive) | 50.4 µM (inactive) | > 100 µM (inactive) | > 100 µM (inactive) | 64.7 µM (inactive) | > 100 µM (inactive) | > 100 µM (inactive) | > 100 µM (inactive) | > 100 µM (inactive) | > 100 µM (inactive) | > 100 µM (inactive) | > 100 µM (inactive) | 97.7 µM (inactive) | > 100 µM (inactive) | – | > 100 µM (inactive) | 96.4 µM (inactive) | > 100 µM | 40.5 µM (inactive) | 26.1 µM (inactive)
COc1ccc2c(c1OC)CN1CCc3cc4c(cc3C1C2)OCO4 (centres undefined) [TETRAHYDROBERBERINE] | > 100 µM (inactive) | > 100 µM (inactive) | > 100 µM (inactive) | > 100 µM (inactive) | > 100 µM (inactive) and 68.7 µM (inactive) | > 100 µM (inactive) | > 100 µM (inactive) | > 100 µM (inactive) | > 100 µM (inactive) | > 100 µM (inactive) | > 100 µM (inactive) | > 100 µM (inactive) | – | > 100 µM (inactive) | > 100 µM (inactive) | – | > 100 µM (inactive) | > 100 µM | > 100 µM (inactive) | > 100 µM (inactive)
COC(=O)c1c(C)cccc1C1CN=NC12Cc1cc(C)cc(C)c1C2=O (centres undefined) | 42.7 µM (inactive) | 22.9 µM (inactive) | 27.9 µM (inactive) | 24.9 µM (inactive) | 58.5 µM (inactive) | 29.2 µM (inactive) | 57.7 µM (inactive) | 76.4 µM (inactive) | 20.4 µM (inactive) | 35.1 µM (inactive) | 29.7 µM (inactive) | 44 µM (inactive) | 34 µM (inactive) | 37.6 µM (inactive) | 38.5 µM (inactive) | 21.5 µM (inactive) | 31.4 µM (inactive) | 30.5 µM | 28.9 µM (inactive) | –
C/C=C\C(CC(=O)NCCC1CN(C(=O)OCc2ccccc2)c2ccccc21)CC(=O)OC (centres undefined) | > 100 µM (inactive) | > 100 µM (inactive) | > 100 µM (inactive) | > 100 µM (inactive) | – | > 100 µM (inactive) | > 100 µM (inactive) | > 100 µM (inactive) | 72.1 µM (inactive) | > 100 µM (inactive) | > 100 µM (inactive) | > 100 µM (inactive) | > 100 µM (inactive) | > 100 µM (inactive) | > 100 µM (inactive) | > 100 µM (inactive) | > 100 µM (inactive) | > 100 µM | > 100 µM (inactive) | 79.4 µM (inactive)
O=C(CC(=O)N(C(=O)/C=C\c1ccccc1)c1ccc(Cl)cc1)N1N=C(c2ccccc2)C(/N=N/c2cccc([N+](=O)[O-])c2)C1=O (centres undefined) | 3.35 µM (inactive) | – | 3.37 µM (inactive) | 6.03 µM (inactive) | 13.2 µM (inactive) | – | 9.06 µM (inactive) | 11.5 µM (inactive) | 51.4 µM (inactive) | 5.25 µM (inactive) | 12.3 µM (inactive) | 11.9 µM (inactive) | 10.3 µM (inactive) | 7.05 µM (inactive) | 6.32 µM (inactive) | 2.42 µM (inactive) | 1.76 µM (inactive) | 1.36 µM | 2.36 µM (inactive) | 3.35 µM (inactive)
Cc1cc(-c2[nH]c(C(=O)O)cc2I)on1 | 36.6 µM (inactive) | > 100 µM (inactive) | 42 µM (inactive) | > 100 µM (inactive) | – | > 100 µM (inactive) | 12.5 µM (inactive) | > 100 µM (inactive) | 9.33 µM (inactive) | 33.7 µM (inactive) | 66.1 µM (inactive) | 26.9 µM (inactive) | 24 µM (inactive) | > 100 µM (inactive) | 76 µM (inactive) | > 100 µM (inactive) | > 100 µM (inactive) | > 100 µM | > 100 µM (inactive) | > 100 µM (inactive)
O=c1[nH]c(=O)n(COCCO)c2ccsc12 | > 100 µM (inactive) | > 100 µM (inactive) | > 100 µM (inactive) | > 100 µM (inactive) | > 100 µM (inactive) | > 100 µM (inactive) | > 100 µM (inactive) | > 100 µM (inactive) | > 100 µM (inactive) | > 100 µM (inactive) | > 100 µM (inactive) | > 100 µM (inactive) | > 100 µM (inactive) | > 100 µM (inactive) | – | > 100 µM (inactive) | > 100 µM (inactive) | > 100 µM | > 100 µM (inactive) | > 100 µM (inactive)
Cc1cc2c(c(=O)o1)C1=S(SC(c3ccccc3)=C1)S2 (centres undefined) | 15 µM (inactive) | > 100 µM (inactive) | 22.8 µM (inactive) | 13.9 µM (inactive) | – | 29 µM (inactive) | 55.5 µM (inactive) | > 100 µM (inactive) | 20.8 µM (inactive) | 27.3 µM (inactive) | > 100 µM (inactive) | 20.8 µM (inactive) | 20.2 µM (inactive) | > 100 µM (inactive) | 23.8 µM (inactive) | 38.9 µM (inactive) | 84.3 µM (inactive) | > 100 µM | 24.9 µM (inactive) | 55.6 µM (inactive)
COC(=O)c1ccc(NCC2=CC(=O)C=CC2=O)cc1 | 2.46 µM (inactive) | 12.4 µM (inactive) | 3.74 µM (inactive) | 14.5 µM (inactive) | 17.9 µM (inactive) | 12.4 µM (inactive) | 16.7 µM (inactive) | 15.1 µM (inactive) | 3.43 µM (inactive) | – | 13.6 µM (inactive) | – | – | 11.4 µM (inactive) | 16.7 µM (inactive) | 17.9 µM (inactive) | 13.6 µM (inactive) | 12.5 µM | 1.79 µM (inactive) | 2.59 µM (inactive)
